Key:
Type in all cases: in vivo
[1] = tested on: Tetranychus urticae; test: Tetranychus urticae test; outdoor spray treatment (TETRUR) on aubergine plants; conditions: S. melongena
Experimental: (§1) To produce an appropriate active ingredient formulation, 1 part by weight of active ingredient is mixed with the stated amounts of water to the desired concentration. Added to the spray liquor is 0.1% a.i. Crovol.
Three aubergine plants (Solanum melongena) infested by all stages of the red spider mite (Tetranychus urticae) are sprayed with an active ingredient formulation of each desired concentration. One spray application is conducted in each case.
(§2) After the desired time, the remaining mites per leaf are counted and calculated as the efficacy by the Abbott formula: […]

[2] = tested on: Polyphagotarsonemus latus; test: Polyphagotarsonemus latus test; outdoor spray treatment (HEMTLA) on bell pepper plants; conditions: Capsicum annuum, 100 g of ai/ha
Experimental: as §1
Three bell pepper plants (Capsicum annuum) infested by all stages of the broad mite (Polyphagotarsonemus latus) are sprayed with an active ingredient formulation of each desired concentration. A spray application with a water application rate of 500 l/Ha is conducted in each case.
as §2

[3] = tested on: Tetranychus urticae; test: Tetranychus urticae test; outdoor spray treatment (TETRUR) on cotton plants; conditions: G. hirsutum
Experimental: as §1
Three cotton plants (Gossypium hirsutum) infested by all stages of the red spider mite (Tetranychus urticae) are sprayed with an active ingredient formulation of each desired concentration. One spray application is conducted in each case.
After the desired time, the remaining mites per leaf are counted and calculated as the efficacy by the Abbott formula:
[formula] • B=treated plots • K=untreated control plots

[4] = tested on: Polyphagotarsonemus latus; test: Polyphagotarsonemus latus test; outdoor spray treatment (HEMTLA) on chilli plants; conditions: C. frutescens
Experimental: as §1
Three chilli plants (Capsicum frutescens) infested by all stages of the broad mite (Polyphagotarsonemus latus) are sprayed with an active ingredient formulation of each desired concentration. A spray application with a water application rate of 458 l/Ha is conducted in each case.
as §2

[5] = tested on: Polyphagotarsonemus latus; test: Polyphagotarsonemus latus test; outdoor spray treatment (HEMTLA) on bean plants; conditions: Ph. vulgaris, three sprays at 7-day intervals
Experimental: as §1
Three bean plants (Phaseolus vulgaris) infested by all stages of the broad mite (Polyphagotarsonemus latus) are sprayed with an active ingredient formulation of each desired concentration. Each plant is treated three times at 7-day intervals with a spray application with a water application rate of 200 l/Ha. The juncture of treatment of the plants with the first spray application X corresponds to the start point of the evaluation (Dat=0) (Dat=days after treatment). The further treatments were effected after 7 days (spray application Y), the third treatment after 14 days (spray application Z).
as §2

[6] = tested on: Polyphagotarsonemus latus; test: Polyphagotarsonemus latus test; outdoor spray treatment (HEMTLA) on aubergine plants; conditions: S. melongena, 100 g of ai/ha, Dat 16
Experimental: as §1
Three aubergine plants (Solanum melongena) infested by all stages of the broad mite (Polyphagotarsonemus latus) are sprayed with an active ingredient formulation of each desired concentration. A spray application with a water application rate of 500 l/Ha is conducted in each case.
as §2

[7] = 100 g of ai/ha (+Crovol 0.1%), Dat 7
[8] = 100 g of ai/ha (+Crovol 0.1%), Dat 14
[9] = 100 g of ai/ha (+Crovol 0.1%), Dat 21
[10] = 75 g of ai/ha (+Crovol 0.1%), Dat 7

Structure (SMILES): Cn1nc(C(F)(F)C(F)(F)F)c(C(F)(F)F)c1C(=O)Nc1ccc(Cl)c(C(=O)NCc2ccccc2)c1 [Compound (I)]
- Efficacy (% Abbott) ([1]; 100 g of ai/ha (+Crovol 0.1%), Dat 5): 99 % Abbott
- Efficacy (% Abbott) [1, 7]: 100 % Abbott
- Efficacy (% Abbott) [1, 8]: 100 % Abbott
- Efficacy (% Abbott) [1, 9]: 99 % Abbott
- Efficacy (% Abbott) ([1]; 100 g of ai/ha (+Crovol 0.1%), Dat 29): 99 % Abbott
- Efficacy (% Abbott) ([2]; Dat 3): 100 % Abbott
- Efficacy (% Abbott) ([2]; Dat 7): 99.8 % Abbott
- Efficacy (% Abbott) ([2]; Dat 15): 95.9 % Abbott
- Efficacy (% Abbott) ([2]; Dat 21): 85.5 % Abbott
- Efficacy (% Abbott) ([3]; 100 g of ai/ha (+Crovol 0.1%), Dat 4): 100 % Abbott
- Efficacy (% Abbott) ([3]; 100 g of ai/ha (+Crovol 0.1%), Dat 6): 100 % Abbott
- Efficacy (% Abbott) [4, 10]: 63 % Abbott
- Efficacy (% Abbott) ([4]; 75 g of ai/ha (+Crovol 0.1%), Dat 14): 67 % Abbott
- Efficacy (% Abbott) ([4]; 75 g of ai/ha (+Crovol 0.1%), Dat 21): 50 % Abbott
- Efficacy (% Abbott) [4, 7]: 75 % Abbott
- Efficacy (% Abbott) [4, 8]: 75 % Abbott
- Efficacy (% Abbott) [4, 9]: 83 % Abbott
- Efficacy (% Abbott) ([5]; 75 g of ai/ha (+Crovol 0.1%), Dat 3): 72 % Abbott
- Efficacy (% Abbott) [5, 10]: 80.7 % Abbott
- Efficacy (% Abbott) ([5]; 75 g of ai/ha (+Crovol 0.1%), Dat 14 (Y)): 81.2 % Abbott
- Efficacy (% Abbott) ([5]; 75 g of ai/ha (+Crovol 0.1%), Dat 21 (Z)): 79.2 % Abbott
- Efficacy (% Abbott) ([5]; 75 g of ai/ha (+Crovol 0.1%), Dat 28): 49.7 % Abbott
- Efficacy (% Abbott) ([5]; 100 g of ai/ha (+Crovol 0.1%), Dat 3): 81.4 % Abbott
- Efficacy (% Abbott) ([5]; 100 g of ai/ha (+Crovol 0.1%), Dat 7 (Y)): 91.5 % Abbott
- Efficacy (% Abbott) ([5]; 100 g of ai/ha (+Crovol 0.1%), Dat 14 (Z)): 90 % Abbott
- Efficacy (% Abbott) [5, 9]: 91.9 % Abbott
- Efficacy (% Abbott) ([5]; 100 g of ai/ha (+Crovol 0.1%), Dat 28): 52.7 % Abbott
- Efficacy (% Abbott) [6]: 100 % Abbott

Structure (SMILES): Cc1nn(C)c(/C(OC(=O)C(C)(C)C)=C(\C#N)c2ccc(C(C)(C)C)cc2)c1C [Cyenopyrafen, reference compound]
- Efficacy (% Abbott) ([3]; 150 g of ai/ha, Dat 4): 98 % Abbott
- Efficacy (% Abbott) ([3]; 150 g of ai/ha, Dat 6): 99 % Abbott
- Efficacy (% Abbott) ([4]; 150 g of ai/ha, Dat 7): 28 % Abbott
- Efficacy (% Abbott) ([4]; 150 g of ai/ha, Dat 14): 45 % Abbott
- Efficacy (% Abbott) ([4]; 150 g of ai/ha, Dat 21): 0 % Abbott
- Efficacy (% Abbott) ([5]; 150 g of ai/ha, Dat 3): 83.7 % Abbott
- Efficacy (% Abbott) ([5]; 150 g of ai/ha, Dat 7 (Y)): 63.8 % Abbott
- Efficacy (% Abbott) ([5]; 150 g of ai/ha, Dat 14 (Z)): 48.5 % Abbott
- Efficacy (% Abbott) ([5]; 150 g of ai/ha, Dat 21): 58.1 % Abbott
- Efficacy (% Abbott) ([5]; 150 g of ai/ha, Dat 28): 0 % Abbott

Structure (SMILES): CC(C)(C)c1ccc(CCOc2ncnc3ccccc23)cc1 [Fenazaquin, reference compound]
- Efficacy (% Abbott) ([2]; Dat 3): 92.3 % Abbott
- Efficacy (% Abbott) ([2]; Dat 7): 96 % Abbott
- Efficacy (% Abbott) ([2]; Dat 15): 77.4 % Abbott
- Efficacy (% Abbott) ([2]; Dat 21): 33.5 % Abbott
- Efficacy (% Abbott) [6]: 97.9 % Abbott

Structure (SMILES): CCC(C)(C)C(=O)OC1=C(c2ccc(Cl)cc2Cl)C(=O)OC12CCCCC2 [Spirodiclofen, reference compound]
- Efficacy (% Abbott) ([1]; 48 g of ai/ha, Dat 5): 63 % Abbott
- Efficacy (% Abbott) ([1]; 48 g of ai/ha, Dat 7): 89 % Abbott
- Efficacy (% Abbott) ([1]; 48 g of ai/ha, Dat 14): 97.5 % Abbott
- Efficacy (% Abbott) ([1]; 48 g of ai/ha, Dat 21): 95 % Abbott
- Efficacy (% Abbott) ([1]; 48 g of ai/ha, Dat 29): 80 % Abbott

Source: patent US20150245611A1, “ACTIVE INGREDIENT FOR CONTROLLING TRUE SPIDER MITES” (BAYER CROPSCIENCE AG, priority 2014, published 2015)
